The source made the active and inactive calls. The calls are words filed in the database; no cut-off is given here.
Experiments:
[1] = Toxicity against human THP1 cells assessed as cell viability at 10 uM incubated for 24 hrs by propidium iodide staining based flow cytometry; settings: thp-1, 24 h
[2] = Anti-inflammatory activity in human THP1 cells assessed as inhibition of LPS-stimulated TNFalpha production at 10 uM incubated for 24 hrs followed by further stimulation with LPS during last 4 hrs by ELISA method; type: functional; settings: THP-1
[3] = Anti-inflammatory activity in human THP1 cells assessed as inhibition of LPS-stimulated TNFalpha production at 1 uM incubated for 24 hrs followed by further stimulation with LPS during last 4 hrs by ELISA method; type: functional; settings: THP-1
[4] = Toxicity against LPS-stimulated human THP1 cells assessed as cell viability at 10 uM incubated for 24 hrs by propidium iodide staining based flow cytometry; settings: thp-1, 24 h
[5] = Anti-inflammatory activity in human THP1 cells assessed as inhibition of LPS-stimulated TNFalpha production at 25 uM incubated for 24 hrs followed by further stimulation with LPS during last 4 hrs by ELISA method; type: functional; settings: THP-1
[6] = Anti-inflammatory activity in human THP1 cells assessed as inhibition of LPS-stimulated TNFalpha production at 5 uM incubated for 24 hrs followed by further stimulation with LPS during last 4 hrs by ELISA method; type: functional; settings: THP-1
[7] = Toxicity against LPS-stimulated human THP1 cells assessed as cell viability at 10 uM incubated for 24 hrs by propidium iodide staining based flow cytometry relative to control; set-up: species or system THP-1; settings: read-out: Activity
[8] = Anti-inflammatory activity in human THP1 cells assessed as inhibition of LPS-stimulated TNFalpha production at 0.1 uM incubated for 24 hrs followed by further stimulation with LPS during last 4 hrs by ELISA method; type: functional; settings: THP-1
[9] = Anti-inflammatory activity in human THP1 cells assessed as inhibition of LPS-stimulated TNFalpha production incubated for 24 hrs followed by further stimulation with LPS during last 4 hrs by ELISA method; type: functional, cell-based; settings: THP-1
[10] = biological target: T1, Tumor necrosis factor receptor superfamily member 1A (Homo sapiens, UniProt P19438); assay: Inhibition of TNFR1 (unknown origin)
T1 sequence (P19438 whole entry): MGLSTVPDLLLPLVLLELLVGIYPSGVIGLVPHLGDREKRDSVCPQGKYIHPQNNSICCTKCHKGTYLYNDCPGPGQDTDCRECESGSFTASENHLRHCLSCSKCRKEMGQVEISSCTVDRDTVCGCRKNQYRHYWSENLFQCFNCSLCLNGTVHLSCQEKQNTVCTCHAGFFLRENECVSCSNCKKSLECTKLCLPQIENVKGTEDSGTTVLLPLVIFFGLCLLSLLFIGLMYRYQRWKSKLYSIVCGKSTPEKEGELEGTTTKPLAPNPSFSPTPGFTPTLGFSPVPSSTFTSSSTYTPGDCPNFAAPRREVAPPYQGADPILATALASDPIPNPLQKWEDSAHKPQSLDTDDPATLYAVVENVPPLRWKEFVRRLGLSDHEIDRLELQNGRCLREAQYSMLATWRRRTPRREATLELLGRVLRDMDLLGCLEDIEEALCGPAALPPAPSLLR

[11] = Anti-inflammatory activity in human THP1 cells assessed as inhibition of LPS-stimulated TNFalpha production at 100 uM incubated for 24 hrs followed by further stimulation with LPS during last 4 hrs by ELISA method; type: functional; settings: THP-1
[12] = Anti-inflammatory activity in human THP1 cells assessed as inhibition of LPS-stimulated TNFalpha production at 50 uM incubated for 24 hrs followed by further stimulation with LPS during last 4 hrs by ELISA method; type: functional; settings: THP-1
PBMC [13] = assay: Anti-inflammatory activity in human PBMC assessed as inhibition of LPS-stimulated TNFalpha production at 5 uM incubated for 24 hrs followed by further stimulation with LPS during last 4 hrs by ELISA method; type: functional
PBMC [14] = assay: Anti-inflammatory activity in human PBMC assessed as inhibition of LPS-stimulated TNFalpha production at 1 uM incubated for 24 hrs followed by further stimulation with LPS during last 4 hrs by ELISA method; type: functional
[15] = Anti-inflammatory activity in CD14 expressing human monocytes assessed as inhibition of LPS-stimulated TNFalpha production at 2.5 uM incubated for 24 hrs followed by further stimulation with LPS during last 4 hrs by ELISA method; type: functional; settings: Monocyte
Monocyte [16] = assay: Anti-inflammatory activity in human monocytes assessed as inhibition of poly I:C stimulated-TNFalpha production at 1 and 5 uM pre-incubated for 1 hr followed by overnight poly I:C stimulation by ELISA method; type: functional, cell-based
[17] = Anti-inflammatory activity in CD14 expressing human monocytes assessed as inhibition of LPS-stimulated TNFalpha production at 0.5 uM incubated for 24 hrs followed by further stimulation with LPS during last 4 hrs by ELISA method; type: functional; settings: Monocyte
Monocyte [18] = assay: Anti-inflammatory activity in human monocytes assessed as inhibition of poly I:C stimulated-IL12 production at 1 and 5 uM pre-incubated for 1 hr followed by overnight poly I:C stimulation by cytometric bead array method; type: functional, cell-based
Homo sapiens [19] = species on record: Homo sapiens; assay: Anti-inflammatory activity in human MDDC assessed as inhibition of poly I:C stimulated-IL12 production at 1 and 5 uM pre-incubated for 1 hr followed by overnight poly I:C stimulation by cytometric bead array method; type: functional
[20] = Anti-inflammatory activity in CD14 expressing human monocytes assessed as inhibition of LPS-stimulated TNFalpha production at 10 uM incubated for 24 hrs followed by further stimulation with LPS during last 4 hrs by ELISA method; type: functional; settings: Monocyte
[21] = Anti-inflammatory activity in CD14 expressing human monocytes assessed as inhibition of LPS-stimulated TNFalpha production at 1 uM incubated for 24 hrs followed by further stimulation with LPS during last 4 hrs by ELISA method; type: functional; settings: Monocyte
PBMC [22] = assay: Anti-inflammatory activity in human PBMC assessed as inhibition of LPS-stimulated TNFalpha production at 0.1 uM incubated for 24 hrs followed by further stimulation with LPS during last 4 hrs by ELISA method; type: functional
Homo sapiens [23] = species on record: Homo sapiens; assay: Anti-inflammatory activity in human MDDC assessed as inhibition of poly I:C stimulated-TNFalpha production at 1 and 5 uM pre-incubated for 1 hr followed by overnight poly I:C stimulation by ELISA method; type: functional
PBMC [24] = assay: Anti-inflammatory activity in human PBMC assessed as inhibition of LPS-stimulated TNFalpha production incubated for 24 hrs followed by further stimulation with LPS during last 4 hrs by ELISA method; type: functional, cell-based
PBMC [25] = assay: Anti-inflammatory activity in human PBMC assessed as inhibition of LPS-stimulated TNFalpha production at 10 uM incubated for 24 hrs followed by further stimulation with LPS during last 4 hrs by ELISA method; type: functional
[26] = Anti-inflammatory activity in CD14 expressing human monocytes assessed as inhibition of LPS-stimulated TNFalpha production incubated for 24 hrs followed by further stimulation with LPS during last 4 hrs by ELISA method; type: functional, cell-based; settings: Monocyte
Mus musculus = assay: Inhibition of LPS-stimulated TNFalpha production in spelnocytes derived from C57BL/6 mouse treated with two doses of compound at 2 mg/kg, ip at interval of 18 hrs measured 4 hrs after second dose by cytometric bead array method; type: functional, organism-based; set-up: dose 2 mg/kg
Monocyte [27] = assay: Anti-inflammatory activity in CD14 expressing human monocytes assessed as inhibition of LPS-stimulated TNFalpha mRNA expression overnight incubated with 1 uM compound followed by further stimulation with LPS for 2 hrs by quantitative RT-PCR analysis; type: functional, cell-based

| Compound | Activity [1] | inhibition at 10 µM [2] | inhibition at 1 µM [3] | Activity [4] | inhibition at 25 µM [5] | inhibition at 5 µM [6] | viability at 24 h, 10 µM [7] | IC50 [9] | also measured |
| --- | --- | --- | --- | --- | --- | --- | --- | --- | --- |
| CCc1cc2c3[nH]c4c([N+](=O)[O-])cccc4c3cc[n+]2nc1CC.Cc1cc(C)cc(CS(=O)(=O)[O-])c1 | Non-toxic | 29% | 44% | Non-toxic | 47% | 56% | 79.4% |  |  |
| Cc1ccc(C2=Cc3ccccc3C3N(C)C(=O)c4ccccc4N23)cc1 (centres undefined) |  | 47% |  |  |  |  |  |  |  |
| Cc1cc(C)cc(CS(=O)(=O)[O-])c1.O=C(O)Cn1c2ccccc2[n+]2nc3c(cc12)-c1cccc2cccc-3c12 | Non-toxic | 45% | 12% | Non-toxic | 84% | 7% | 69.9% | 14.6 µM | inhibition at 0.1 µM [8]: 9% |
| CCc1cc2c3[nH]c4ccc(Br)cc4c3cc[n+]2nc1CC.Cc1cc(C)cc(CS(=O)(=O)[O-])c1 | Non-toxic | 89% |  | Non-toxic |  |  | 3.76% |  |  |
| CCc1cc2c3c(cc[n+]2nc1CC)c1ccc(OCc2ccccc2)cc1n3C(=O)OC(C)(C)C.Cc1cc(C)cc(CS(=O)(=O)[O-])c1 | Non-toxic | 94% |  | Non-toxic |  |  | 33% |  |  |
| O=C1NC2c3ccccc3C(=O)N2c2ccccc21 (centres undefined) |  |  |  |  |  |  |  | 9.33 µM |  |
| Cc1cc2occ(CN(C)CCN(C)Cc3cn(-c4cccc(C(F)(F)F)c4)c4ccccc34)c(=O)c2cc1C |  |  |  |  |  |  |  |  | IC50 [10]: 22 µM |
| C#CCCCn1c2cc(OC)ccc2c2cc[n+]3nc4c(cc3c21)-c1cccc2cccc-4c12.Cc1cc(C)cc(CS(=O)(=O)[O-])c1 | Non-toxic | 94% |  | Non-toxic |  |  | 0% |  |  |
| CCOC(=O)Cn1c2cc(OC)ccc2c2cc[n+]3nc(CC)c(CC)cc3c21.Cc1cc(C)cc(CS(=O)(=O)[O-])c1 | Non-toxic | 45% | 51% | Non-toxic | 94% | 67% | 89.7% | 11.5 µM |  |
| CCc1cc2c3c(cc[n+]2nc1CC)c1ccc(OC)cc1n3CC(=O)O.Cc1cc(C)cc(CS(=O)(=O)[O-])c1 | Non-toxic | 38% |  | Non-toxic | 29% |  | 93% |  | inhibition at 100 µM [11]: 40%; inhibition at 50 µM [12]: 35% |
| COc1ccc2c(c1)[nH]c1c2cc[n+]2nc(C)c(C)cc12.[Br-] | Non-toxic | 87.8% | 34.9% | Non-toxic |  | 63.4% | 61.3% | 4.49 µM | inhibition at 5 µM (PBMC [13]): 71.2%; inhibition at 1 µM (PBMC [14]): 38.8%; inhibition at 2.5 µM [15]: 56.4%; inhibition (Monocyte [16]): Active; inhibition at 0.5 µM [17]: 28.6%; inhibition (Monocyte [18]): Active; inhibition at 0.1 µM [8]: -0.97%; inhibition (Homo sapiens [19]): Active; inhibition at 10 µM [20]: 95.3%; inhibition at 1 µM [21]: 38.1%; inhibition at 0.1 µM (PBMC [22]): 22.7%; inhibition (Homo sapiens [23]): Active; IC50 (PBMC [24]): 3.91 µM; inhibition at 10 µM (PBMC [25]): 69.2%; IC50 [26]: 1.82 µM; inhibition (Mus musculus): Active; inhibition (Monocyte [27]): Active |
| CCc1cc2c3[nH]c4c(N)cccc4c3cc[n+]2nc1CC.Cl.Cl | Non-toxic | 88% | 13.3% | Non-toxic |  | -13.4% | 65% |  |  |
| Cc1cc(C)cc(CS(=O)(=O)[O-])c1.O=C(O)CCCn1c2ccccc2[n+]2nc3c(cc12)-c1cccc2cccc-3c12 | Non-toxic | 19% |  | Non-toxic | 47% |  | 86% | 39.2 µM | inhibition at 100 µM [11]: 85%; inhibition at 50 µM [12]: 70% |
| C#CCCCn1c2cc(OC)ccc2c2cc[n+]3nc(-c4ccco4)c(-c4ccco4)cc3c21.Cc1cc(C)cc(CS(=O)(=O)[O-])c1 | Non-toxic | 87% |  | Non-toxic |  |  | 0% |  |  |
| CCc1cc2c3c(cc[n+]2nc1CC)c1ccc(OC)cc1n3CCCC#CC#CCCCn1c2cc(OC)ccc2c2cc[n+]3nc(CC)c(CC)cc3c21.Cc1cc(C)cc(CS(=O)(=O)[O-])c1.Cc1cc(C)cc(CS(=O)(=O)[O-])c1 | Non-toxic | 34% |  | Non-toxic |  |  | 9.54% |  |  |
| CCc1cc2c3c(cc[n+]2nc1CC)c1ccc(OC)cc1n3CCCI.[I-] | Non-toxic | 72% | 11% | Non-toxic | 79% | 36% | 63.3% | 9.88 µM |  |
| CN(C)CCC[N+](C)(C)CCCn1c2ccccc2[n+]2nc3c(cc12)-c1cccc2cccc-3c12.[Br-].[Br-] | Non-toxic | 39% |  | Non-toxic |  |  | 25.3% |  |  |

Reference: ChEMBL document CHEMBL3407345, “Synthesis and biological evaluation of pyridazino[1',6':1,2]pyrido[3,4-b]indolinium and pyridazino[1,6-a]benzimidazolium salts as anti-inflammatory agents” (Eur J Med Chem, 2015)
